Data taken from ChEMBL document CHEMBL1128953, “Solid-phase synthesis of peptidosulfonamide containing peptides derived from Leu-enkephalin” (Bioorg Med Chem Lett, 1996).
Peptide text beside a SMILES is read from it. * marks the point of attachment. X1 = CC(C)C[C@@H](CS(N)(=O)=O)N*

Assay: Compound was tested for inhibition of anti-beta-endorphin monoclonal antibody by using ELISA assay.
Format: functional

| Compound | IC50 |
| --- | --- |
| CC(C)C[C@H](NS(=O)(=O)C[C@H](Cc1ccccc1)NC(=O)CNC(=O)CNC(=O)[C@@H](N)Cc1ccc(O)cc1)C(N)=O | 0.9 µM |
| CC(C)C[C@H](NC(=O)[C@H](Cc1ccccc1)NC(=O)CNS(=O)(=O)CCNC(=O)[C@@H](N)Cc1ccc(O)cc1)C(=O)O | > 200 µM |
| CC(C)C[C@H](NC(=O)[C@H](Cc1ccccc1)NS(=O)(=O)CCNC(=O)CNC(=O)[C@@H](N)Cc1ccc(O)cc1)C(N)=O | 85 µM |
| CC(C)C[C@H](NC(=O)[C@H](Cc1ccccc1)NC(=O)CNS(=O)(=O)CCNC(=O)[C@@H](N)Cc1ccc(O)cc1)C(N)=O | 75 µM |
| CC(C)C[C@H](NS(=O)(=O)C[C@H](Cc1ccccc1)NC(=O)CNC(=O)CNC(=O)[C@@H](N)Cc1ccc(O)cc1)C(=O)O | 5 µM |
| CC(C)C[C@H](NC(=O)[C@H](Cc1ccccc1)NS(=O)(=O)CCNC(=O)CNC(=O)[C@@H](N)Cc1ccc(O)cc1)C(=O)O | > 200 µM |
| CC(C)C[C@@H](CS(N)(=O)=O)NC(=O)[C@H](Cc1ccccc1)NC(=O)CNC(=O)CNC(=O)[C@@H](N)Cc1ccc(O)cc1 (H-YGGF-X1) | 0.1 µM |
| CC(C)C[C@H](NC(=O)[C@H](Cc1ccccc1)NC(=O)CNC(=O)CNC(=O)[C@@H](N)Cc1ccc(O)cc1)C(N)=O [[LEU5]ENKEPHALIN] | 0.07 µM |
